Key:
barnyardgrass [1] = assay: Test A pre-/postemergence herbicide test; assay type: in vivo, Echinochloa crus-galli
How it was run: (§1)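 Pre: seeded sandy loam, directed soil spray, compound in non-phytotoxic solvent + surfactant. Post: 1–2-leaf plants (2–10 cm), sprayed to runoff. Greenhouse ~10 d; visual injury vs untreated, 0–100 scale.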

large crabgrass [2] = assay: Test A pre-/postemergence herbicide test; assay type: in vivo, Digitaria sanguinalis
How it was run: as §1

giant foxtail [3] = assay: Test A pre-/postemergence herbicide test; assay type: in vivo, Setaria faberi
How it was run: as §1

morningglory [4] = assay: Test A pre-/postemergence herbicide test; assay type: in vivo, Ipomoea spp.
How it was run: as §1

redroot pigweed = assay: Test A pre-/postemergence herbicide test; assay type: in vivo, Amaranthus retroflexus
How it was run: as §1

velvetleaf [5] = assay: Test A pre-/postemergence herbicide test; assay type: in vivo, Abutilon theophrasti
How it was run: as §1

barnyardgrass [6] = assay: Test B pre-/postemergence herbicide test; assay type: in vivo, Echinochloa crus-galli; details: for Barnyardgrass plant response rating: postemergence, visual rating, scale 0 (no effect) to 100 (complete control)
How it was run: (§2)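 Evaluation is visual, comparing treated with control plants on a scale where 0 means no effect and 100 means full control. Treatments were preemergence, or postemergence on seedlings 2–18 cm tall, and held 13–15 days in the greenhouse.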

Surinam grass = assay: Test B pre-/postemergence herbicide test; assay type: in vivo, Urochloa decumbens; details: for Surinam Grass plant response rating: postemergence, visual rating, scale 0 (no effect) to 100 (complete control)
How it was run: (§3)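 Response was scored visually 13 to 15 days after treatment against untreated greenhouse controls, 0 meaning no effect and 100 complete control. Formulations (solvent mixture plus surfactant) went onto soil after planting, onto foliage of 1- to 4-leaf plants, and onto 2-leaf plants in a flooded paddy set including rice and barnyardgrass.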

cocklebur = assay: Test B pre-/postemergence herbicide test; assay type: in vivo, Xanthium strumarium; details: for Cocklebur plant response rating: postemergence, visual rating, scale 0 (no effect) to 100 (complete control)
How it was run: as §2

corn = assay: Test B pre-/postemergence herbicide test; assay type: in vivo, Zea mays; details: for Corn plant response rating: postemergence, visual rating, scale 0 (no effect) to 100 (complete control)
How it was run: as §3

large crabgrass [7] = assay: Test B pre-/postemergence herbicide test; assay type: in vivo, Digitaria sanguinalis; details: for Crabgrass, Large plant response rating: postemergence, visual rating, scale 0 (no effect) to 100 (complete control)
How it was run: as §3

giant foxtail [8] = assay: Test B pre-/postemergence herbicide test; assay type: in vivo, Setaria faberi; details: for Foxtail, Giant plant response rating: postemergence, visual rating, scale 0 (no effect) to 100 (complete control)
How it was run: as §3

lambsquarters = assay: Test B pre-/postemergence herbicide test; assay type: in vivo, Chenopodium album; details: for Lambsquarters plant response rating: postemergence, visual rating, scale 0 (no effect) to 100 (complete control)
How it was run: as §3

morningglory [9] = assay: Test B pre-/postemergence herbicide test; assay type: in vivo, Ipomoea coccinea; details: for Morningglory plant response rating: postemergence, visual rating, scale 0 (no effect) to 100 (complete control)
How it was run: as §2

pigweed = assay: Test B pre-/postemergence herbicide test; assay type: in vivo, Amaranthus retroflexus; details: for Pigweed plant response rating: postemergence, visual rating, scale 0 (no effect) to 100 (complete control)
How it was run: as §3

rice [10] = assay: Test B pre-/postemergence herbicide test; assay type: in vivo, Oryza sativa; details: preemergence
How it was run: as §3

velvetleaf [11] = assay: Test B pre-/postemergence herbicide test; assay type: in vivo, Abutilon theophrasti; details: for Velvetleaf plant response rating: postemergence, visual rating, scale 0 (no effect) to 100 (complete control)
How it was run: as §3

blackgrass = assay: Test B postemergence herbicide test; assay type: in vivo, Alopecurus myosuroides; details: postemergence, visual rating, scale 0 (no effect) to 100 (complete control)
How it was run: (§4)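 Each value is a visual 0–100 response rating taken against controls 13 to 15 days after treatment in the greenhouse. Plants received formulated chemical postemergence at the 1- to 4-leaf stage or, in flooded paddy, at the 2-leaf stage.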

wheat = assay: Test B postemergence herbicide test; assay type: in vivo, Triticum aestivum; design: key to Wheat plant response rating: 0 = no effect, 100 = complete control; details: postemergence, visual rating, scale 0 (no effect) to 100 (complete control)
How it was run: (§5)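 Read-out: visual comparison with controls, scored 0 to 100, where 100 means complete control and 0 no effect. Formulated chemicals were applied postemergence to plants 2–18 cm tall (1- to 4-leaf), or to flooded-paddy plants at the 2-leaf stage, then held 13 to 15 days under glass.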

wild oat = assay: Test B postemergence herbicide test; assay type: in vivo, Avena fatua; details: postemergence, visual rating, scale 0 (no effect) to 100 (complete control)
How it was run: as §5

rice [12] = assay: Test B flooded paddy test; assay type: in vivo, Oryza sativa; details: 1000 g ai/ha, visual rating, scale 0 to 100 (0 no effect, 100 complete control), 13 to 15 days
How it was run: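 Postemergence plants were sprayed with formulated test chemicals at 2 to 18 cm height (1- to 4-leaf stage); paddy species were grown to the 2-leaf stage. After 13 to 15 days in a greenhouse, injury was rated visually against untreated controls on a 0–100 scale (0 = no effect, 100 = complete control).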

[13] = test system: small flower umbrella sedge; assay: Test B flooded paddy test; assay type: in vivo, Cyperus difformis; details: 1000 g ai/ha, visual rating, scale 0 to 100 (0 no effect, 100 complete control), 13 to 15 days
How it was run: as §4

ducksalad = assay: Test B flooded paddy test; assay type: in vivo, Heteranthera limosa; details: 1000 g ai/ha, visual rating, scale 0 to 100 (0 no effect, 100 complete control), 13 to 15 days
How it was run: as §4

barnyardgrass [14] = assay: Test B flooded paddy test; assay type: in vivo, Echinochloa crus-galli; details: 1000 g ai/ha, visual rating, scale 0 to 100 (0 no effect, 100 complete control), 13 to 15 days
How it was run: as §4

[15] = Postemergence, 500 g ai/ha, 0 to 100 scale, 0 no effect, 100 complete control
[16] = Postemergence, 2000 g ai/ha, 0 to 100 scale, 0 no effect, 100 complete control
[17] = Preemergence, 2000 g ai/ha, visual rating, 0 to 100 scale (0 no effect, 100 complete control)
[18] = preemergence, 500 g ai/ha, visual injury, 0 to 100 scale (0 no effect, 100 complete control)
[19] = 125 g ai/ha, 0 = no effect, 100 = complete control, preemergence
[20] = 500 g ai/ha, visual rating 0-100, 0 no effect, 100 complete control, preemergence

Cc1nc(C(C)(C)C)sc1C(=O)Nc1cccc(C(=O)NCC(F)(F)F)c1 [Compound 201]
Barnyardgrass plant response rating (barnyardgrass [1]; [15]): 10 | Plant response rating, Barnyardgrass (barnyardgrass [1]; [16]): 20 | Barnyardgrass plant response rating (barnyardgrass [1]; [17]): 50 | Barnyardgrass plant response rating (barnyardgrass [1]; [18]): 0 | Crabgrass, Large plant response rating (large crabgrass [2]; [15]): 10 | Plant response rating, Crabgrass, Large (large crabgrass [2]; [16]): 20 | Crabgrass, Large plant response rating (large crabgrass [2]; [17]): 70 | Crabgrass, Large plant response rating (large crabgrass [2]; [18]): 35 | Foxtail, Giant plant response rating (giant foxtail [3]; [15]): 0 | Plant response rating, Foxtail, Giant (giant foxtail [3]; [16]): 10 | Foxtail, Giant plant response rating (giant foxtail [3]; [17]): 15 | Foxtail, Giant plant response rating (giant foxtail [3]; [18]): 0 | Morningglory plant response rating (morningglory [4]; [15]): 25 | Plant response rating, Morningglory (morningglory [4]; [16]): 30 | Morningglory plant response rating (morningglory [4]; [17]): 5 | Morningglory plant response rating (morningglory [4]; [18]): 0 | Pigweed plant response rating (redroot pigweed; [15]): 40 | Plant response rating, Pigweed (redroot pigweed; [16]): 55 | Pigweed plant response rating (redroot pigweed; [17]): 95 | Pigweed plant response rating (redroot pigweed; [18]): 40 | Velvetleaf plant response rating (velvetleaf [5]; [15]): 10 | Plant response rating, Velvetleaf (velvetleaf [5]; [16]): 10 | Velvetleaf plant response rating (velvetleaf [5]; [17]): 35 | Velvetleaf plant response rating (velvetleaf [5]; [18]): 0 | Barnyardgrass plant response rating (0 to 100 scale) (barnyardgrass [6]; [19]): 0 | Plant response rating, Barnyardgrass (barnyardgrass [6]; [20]): 10 | Barnyardgrass plant response rating (barnyardgrass [6]; 125 g ai/ha): 0 | Barnyardgrass plant response rating (barnyardgrass [6]; 500 g ai/ha): 0 | Surinam Grass plant response rating (0 to 100 scale) (Surinam grass; [19]): 0 | Plant response rating, Surinam Grass (Surinam grass; [20]): 0 | Surinam Grass plant response rating (Surinam grass; 125 g ai/ha): 0 | Surinam Grass plant response rating (Surinam grass; 500 g ai/ha): 10 | Cocklebur plant response rating (0 to 100 scale) (cocklebur; [19]): 0 | Plant response rating, Cocklebur (cocklebur; [20]): 0 | Cocklebur plant response rating (cocklebur; 125 g ai/ha): 10 | Cocklebur plant response rating (cocklebur; 500 g ai/ha): 10 | Corn plant response rating (0 to 100 scale) (corn; [19]): 0 | Plant response rating, Corn (corn; [20]): 0 | Corn plant response rating (corn; 125 g ai/ha): 10 | Corn plant response rating (corn; 500 g ai/ha): 20 | Crabgrass, Large plant response rating (0 to 100 scale) (large crabgrass [7]; [19]): 0 | Plant response rating, Crabgrass, Large (large crabgrass [7]; [20]): 60 | Crabgrass, Large plant response rating (large crabgrass [7]; 125 g ai/ha): 0 | Crabgrass, Large plant response rating (large crabgrass [7]; 500 g ai/ha): 10 | Foxtail, Giant plant response rating (0 to 100 scale) (giant foxtail [8]; [19]): 0 | Plant response rating, Foxtail, Giant (giant foxtail [8]; [20]): 0 | Foxtail, Giant plant response rating (giant foxtail [8]; 125 g ai/ha): 0 | Foxtail, Giant plant response rating (giant foxtail [8]; 500 g ai/ha): 0 | Lambsquarters plant response rating (0 to 100 scale) (lambsquarters; [19]): 0 | Plant response rating, Lambsquarters (lambsquarters; [20]): 30 | Lambsquarters plant response rating (lambsquarters; 125 g ai/ha): 40 | Lambsquarters plant response rating (lambsquarters; 500 g ai/ha): 40 | Morningglory plant response rating (0 to 100 scale) (morningglory [9]; [19]): 0 | Plant response rating, Morningglory (morningglory [9]; [20]): 10 | Morningglory plant response rating (morningglory [9]; 125 g ai/ha): 0 | Morningglory plant response rating (morningglory [9]; 500 g ai/ha): 30 | Pigweed plant response rating (0 to 100 scale) (pigweed; [19]): 0 | Plant response rating, Pigweed (pigweed; [20]): 20 | Pigweed plant response rating (pigweed; 125 g ai/ha): 10 | Pigweed plant response rating (pigweed; 500 g ai/ha): 40 | Rice plant response rating (0 to 100 scale) (rice [10]; 125 g ai/ha, 0 = no effect, 100 = complete control): 0 | Plant response rating, Rice (rice [10]; 500 g ai/ha, visual rating 0-100, 0 no effect, 100 complete control): 0 | Velvetleaf plant response rating (0 to 100 scale) (velvetleaf [11]; [19]): 0 | Plant response rating, Velvetleaf (velvetleaf [11]; [20]): 10 | Velvetleaf plant response rating (velvetleaf [11]; 125 g ai/ha): 0 | Velvetleaf plant response rating (velvetleaf [11]; 500 g ai/ha): 0 | Blackgrass plant response rating (blackgrass; 125 g ai/ha): 0 | Blackgrass plant response rating (blackgrass; 500 g ai/ha): 0 | Wheat plant response rating (wheat; 125 g ai/ha): 0 | Wheat plant response rating (wheat; 500 g ai/ha): 0 | Oat, Wild plant response rating (wild oat; 125 g ai/ha): 10 | Oat, Wild plant response rating (wild oat; 500 g ai/ha): 10 | Rice plant response rating (rice [12]): 0 | Sedge, Umbrella plant response rating [13]: 0 | Ducksalad plant response rating (ducksalad): 0 | Barnyardgrass plant response rating (barnyardgrass [14]): 0

— patent US20060069132A1, “Azolecarboxamide herbicides” (priority 2004, published 2006)
